From patent US20030157516A1, “G protein coupled receptor” (priority 2000, published 2003) come the findings set out here.

For assay [1], the target named is T1, adenine binding rat receptor (Rattus norvegicus, UniProt Q7TN49).
T1 construct: expressed in transfected cells; host or cells: CHO cells, transient, lipofectamine PLUS
T1 sequence (Q7TN49 1-304): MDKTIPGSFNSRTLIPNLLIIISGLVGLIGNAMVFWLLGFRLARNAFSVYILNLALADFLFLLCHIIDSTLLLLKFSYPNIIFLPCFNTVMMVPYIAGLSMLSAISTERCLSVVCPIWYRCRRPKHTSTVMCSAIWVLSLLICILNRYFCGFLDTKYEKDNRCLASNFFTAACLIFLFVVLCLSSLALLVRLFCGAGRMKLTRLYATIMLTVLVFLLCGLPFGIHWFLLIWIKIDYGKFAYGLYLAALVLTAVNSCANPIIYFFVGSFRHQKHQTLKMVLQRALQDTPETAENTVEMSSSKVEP
In words: [3H]adenine competition binding on CHO membranes transiently transfected. To be noted: transfected cells, 15 nM [3H]adenine. The procedure: The membranes were prepared as total particulate fractions. The cell lines were cultured to […] on 145 mm petri dishes and treated with 5 mM sodium butyrate, 24 hours before collection. The culturing medium was removed and the cells were washed twice with ice cold phosphate buffered saline (PBS without Ca^2+ and Mg^2+), scraped from the plates in 50 mM Tris-HCl buffer, pH 7.4, and collected by centrifugation (10 minutes at 16,000 RPM at 4° C.). The cell pellet was re-suspended in hypotonic 5 mM Tris-HCl buffer, pH 7.4, and homogenized with an Ultra Turrax homogenizer (Janker Kunkel, Germany). The homogenate was centrifuged at 18,000 RPM for 20 minutes at 4° C. The final pellet was re-suspended in 50 mM Tris-HCl buffer, pH 7.4 and stored in aliquots at −70° C. A protein determination was performed using the Bradford protein assay (Biorad, Germany) using bovine serum albumin (BSA) as standard.
A) Methods—[3H]Adenine binding experiments were performed to characterize wild type cell lines before transfection as well as transiently and permanently transfected cell lines. Membranes were thawed on ice and diluted in 50 mM HEPES buffer, pH 7.4 supplemented with 10 mM MgCl2 and 1 mM EGTA. […] Both assays were carried out in a final volume of 500 μl, using 18 μg of membrane protein for the transfected CHO cells and 30 μg of membrane protein for the wild type CHO cells for the saturation binding. For competition binding experiments, 15 and 50 μg of membrane protein was used for the transfected and wild type cells, respectively. The reaction was terminated by rapid filtration through Whatman GF/B filters using a Brandel multi-channel cell harvester (96 wells). The filters were washed three times with 3 ml ice cold 50 mM HEPES buffer, pH 7.4, transferred to liquid scintillation vials and 3 ml of scintillation fluid (Ultima Gold MV, Packard, Netherlands) was added. Samples were counted in a β-scintillation counter after at least 6 hours to permit the glass fiber filters to become uniformly translucent.

The next assay relates to wild type CHO cells. In words: [35S]GTPγS binding on wild type CHO membranes. It counts as biochemical. The method, then: a) Methods—Determination of [^35S ]GTPγS binding to the G-proteins was carried out according to a modified procedure of Lazareno (Methods Mol. Biol., 83:107-116, 1997). These experiments were performed for a first functional evaluation of the receptor on the level of a membrane preparation. […] For testing agonistic activity, 175 μl of diluted membranes was pre-incubated in the buffer described above together with 25 μl of buffer and 25 μl of varying concentrations of the compound in a total volume of 225 μl. After a 20 minute pre-incubation period at 30° C., 25 μl of [^35S]GTPγS was added to a final concentration of 0.25 nM and the assay mixtures were further incubated for 20 minutes at 30° C. […] The amount of bound radioactivity on the filter unit was determined after drying of the filters and scintillant addition (Microscint-O; Packard Company) by liquid scintillation counting. Basal [^35S]GTPγS binding was measured in absence of compounds. Stimulation by agonist was calculated as the percentage increase above basal levels. The sigmoid agonist concentration-response curves were analyzed by non-linear regression using the GraphPad Prism program. The different concentration points were run in duplicates and the reported data were retrieved from independent experiments.
On the technique in general: Binding of GTPγS marks nucleotide exchange on a G protein.

Assay [2] deals with T1, adenine binding rat receptor. In words: [35S]GTPγS binding on CHO membranes transiently transfected. It counts as biochemical. To be noted: for % stim.: increase above basal. The procedure:
a) Methods—Determination of [^35S ]GTPγS binding to the G-proteins was carried out according to a modified procedure of Lazareno (Methods Mol. Biol., 83:107-116, 1997). These experiments were performed for a first functional evaluation of the receptor on the level of a membrane preparation.
The assay mixture contained 10 and 35 μg of membrane protein for the transfected and wild type CHO cells, respectively.
For testing agonistic activity, 175 μl of diluted membranes was pre-incubated in the buffer described above together with 25 μl of buffer and 25 μl of varying concentrations of the compound in a total volume of 225 μl. After a 20 minute pre-incubation period at 30° C., 25 μl of [^35S]GTPγS was added to a final concentration of 0.25 nM and the assay mixtures were further incubated for 20 minutes at 30° C. Bound and free [^35S]GTPγS were separated by rapid filtration over an UniFilter™-96, GF/B™ under reduced pressure using Filtermate 196 filtration (Packard Company (Netherlands). The amount of bound radioactivity on the filter unit was determined after drying of the filters and scintillant addition (Microscint-O; Packard Company) by liquid scintillation counting.
Basal [^35S]GTPγS binding was measured in absence of compounds. Stimulation by agonist was calculated as the percentage increase above basal levels. The sigmoid agonist concentration-response curves were analyzed by non-linear regression using the GraphPad Prism program. The different concentration points were run in duplicates and the reported data were retrieved from independent experiments.

The mark [3] stands for this setting: transiently transfected CHO membranes.
The mark [4] stands for this setting: transiently transfected cells, mean of n experiments.
[5] abbreviates: transiently transfected cells, single experiments.
The mark [6] stands for this setting: transiently transfected cells, single experiments, read-out: pEC50 (converted).

A word on the IC50: it is the concentration needed to halve the response being measured. A higher IC50 goes with weaker potency. In general, Ki refers to a measure of affinity in units of concentration, obtained from inhibition or displacement. A low value points to higher affinity. As a reminder, the pEC50 is the EC50 on a negative log10 scale, so that one unit is a factor of ten. Read a low pEC50 as a large EC50. Broadly, the pIC50 is −log10 of the IC50, conventionally taken in molar units. High values mean a low IC50, low ones a high IC50.

“And” between values parts separate entries of the source, which are not always exact repeats. Equal entries are not always repeated. Where two headings read alike, the source gives them in different places.

Turning to `Cn1cnc2ncnc-2c1N` [1-Methyladenine], the IC50 was 7.08 µM in assay [1] (mean of n experiments); 6.17 µM and 9.77 µM and 5.75 µM in assay [1] (single experiments). Further, the Ki was 4.39 µM in assay [1] (mean of n experiments); 3.79 µM and 6.06 µM and 3.57 µM in assay [1] (single experiments). Further, the “% stim.” value in the assay on wild type CHO cells (mean of n experiments) is 0%; in the assay with wild type CHO cells (single experiments) it was 0%; in assay [2] (setting [4]), 129%; in assay [2] (setting [5]), 90% and 135% and 161%. The same compound registered a pEC50 with wild type CHO cells (single experiments) of less than 4. In addition, the “stimulation of the receptor ([35S]GTPγS binding)” value in assay [2] (setting [3]) is “stimulated the receptor partially with a much lower potency”. Moreover, the EC50 in assay [2] (transiently transfected cells, mean of n experiments, read-out: pEC50 (converted)) was 15.1 µM; in assay [2] (setting [6]), 16.2 µM and 12 µM and 17.8 µM.
`Nc1ncnc2c1ncn2[C@@H]1O[C@H](COP(=O)(O)O)[C@@H](O)[C@H]1O` [AMP]: the Ki was 24.5 µM in assay [1] (mean of n experiments); 31.9 µM and 20.8 µM and 21.2 µM in assay [1] (single experiments). In addition, the pIC50 in assay [1] (mean of n experiments) was 4.41; in assay [1] (single experiments) it was 4.29 and 4.47 and 4.46. Moreover, the “% stim.” value is on record as 0% in the assay with wild type CHO cells (mean of n experiments), 0% in the assay on wild type CHO cells (single experiments) and 95% in assay [2] (setting [4]). Further, the pEC50 in the assay with wild type CHO cells (single experiments) was less than 4; in assay [2] (setting [4]), 4.35. Moreover, the “stimulation of the receptor ([35S]GTPγS binding)” value in assay [2] (setting [3]) is on record as “stimulated the receptor partially with a much lower potency”.
`Nc1ncnc2nc[nH]c12` [Adenine, adenine]: the half-maximal inhibitory concentration (IC50) in assay [1] (mean of n experiments) is 0.0282 µM; in assay [1] (single experiments) it was 0.0174 µM and 0.0363 µM and 0.0309 µM and 0.0331 µM. The inhibition constant Ki was 0.018 µM in assay [1] (mean of n experiments); 0.011 µM and 0.022 µM and 0.019 µM and 0.02 µM in assay [1] (single experiments). Besides, the “% stim.” value is 0% in the assay on wild type CHO cells (mean of n experiments); 0% in the assay on wild type CHO cells (single experiments); 148% in assay [2] (setting [4]); 150% in assay [2] (transiently transfected cells, mean of n experiments, listed as adenine); 177% and 199% and 106% and 111% in assay [2] (setting [5]). In the assay with wild type CHO cells (single experiments), this compound came in with a negative-log EC50 (pEC50) of less than 5. For the same compound, the EC50 in assay [2] (transiently transfected CHO membranes, read-out: mean EC50) is 0.112 µM; in assay [2] (setting [6]), 0.0955 µM and 0.115 µM and 0.132 µM.
